The values below come from patent EP4682143A1, “PHARMACEUTICAL COMPOSITION CONTAINING EGFR INHIBITOR, AND PREPARATION METHOD THEREFOR AND USE THEREOF” (Convalife Pharmaceuticals Co., Ltd., priority 2023, dated 2024).

Read-outs that look alike come from different tables or passages of the source.

For assay [1], the system named is Cholangiocarcinoma PDX Model LD1-0060-200791. The assay can be described thus: Cholangiocarcinoma PDX model in vitro antiproliferation assay (CTG). The class given is cell-based. Particulars: for IC50: 144 h; for IC50 / Maximum Inhibition Rate (%) / Minimum Inhibition Rate (%): cultured 6 days, CTG; for Slope: slope of inhibition curve. Here is the method: Tumor tissues were surgically excised from the subcutaneous tumors of tumor-bearing mice and immersed in HBSS buffer. Non-tumor and necrotic tissues were removed in a biosafety cabinet, and the tissues were cut into small pieces of 1-3 mm^3. Tumor pieces were digested with collagenase at 37°C for 1-2 hours. Single-cell suspensions were collected through a mesh, and centrifuged at 1200 rpm for 3 minutes to remove the supernatant. […] High-concentration drug stocks were diluted 1000× with BIO-MPM-1 medium to prepare 20× intermediate concentrations. Each well of a 96-well plate received 7.5 µL of the corresponding 20× drug solution or BIO-MPM-1 containing 2% DMSO (final DMSO concentration 0.2%). Then 135 µL of cell suspension was added per well. Cells were cultured continuously for 6 days at 37°C. Afterwards, 50 µL of CTG reagent was added per well. After mixing, 80 µL of the solution was measured in a multifunctional microplate reader for ATP content. Signals from each well were recorded to generate inhibition curves and calculate parameters such as IC50.
Inhibition curves were plotted using Xlfit (IDBS) to determine parameters including maximum inhibition, minimum inhibition, absolute IC50, relative IC50, and slope.
Proliferation rate (fold increase) was calculated as: Proliferation rate = (Vday6Control−Vday6Blank)/(Vday0Control−Vday0Blank) [formula]

The subject of assay [2] is Ba/F3-EGFR-G719S cell line. The assay is described as follows: CellTiter-Glo (CTG) cell proliferation assay (Example A). Type of assay: cell-based. The conditions noted are these: 72 hours, highest test concentration 1 µM. On the procedure:
Due to its high sensitivity and simple workflow, it is currently a widely used cell viability assay.
Cell viability was assessed by trypan blue exclusion to ensure viability above 90%. • c) Cells were adjusted to the desired density with complete growth medium and seeded into 96-well plates at 3,000 cells per well in 90 µL medium. • d) The seeded 96-well plates were incubated at 37°C under 5% CO2. • e) Ten-fold stock solutions of each compound were prepared, with the highest test concentration of 1 µM. Nine concentrations were generated by four-fold serial dilution. Subsequently, 10 µL of each diluted compound was transferred into the corresponding wells of the 96-well plates, with triplicate wells for each concentration. • f) The compound-treated 96-well plates were incubated for an additional 72 hours at 37°C under 5% CO2, followed by CTG analysis. • g) The CTG reagent was thawed and the cell plates were equilibrated to room temperature for 30 minutes. • h) An equal volume of CTG reagent was added to each well. • i) The plates were shaken on a plate shaker for 5 minutes to induce cell lysis. • j) Plates were incubated at room temperature for 20 minutes to stabilize the luminescent signal. • k) Luminescence was measured and data were collected.
Data were analyzed using GraphPad Prism 7.0 software. Nonlinear sigmoidal regression was applied to fit the dose-response curves, from which IC50 values were calculated.
Cell viability (%) was determined according to the following equation: Cell viability(%) = (Lumcompound−Lummedium control)/(Lumvehicle control−Lummedium control) × 100% [formula]

As for `CNCc1ccc(-c2cc3cc(F)cc(C(N)=O)c3o2)cc1` [CVL218], the IC50 (commonly the concentration that inhibits the measured activity by half) in assay [1] (read-out: Absolute IC50) is 5770 nM. Further, in assay [1] (read-out: Relative IC50), the 50% inhibitory concentration (IC50) amounted to 7080 nM. In addition, in assay [1], the “Maximum Inhibition Rate (%)” value is recorded as 110.0%, the “Minimum Inhibition Rate (%)” value was 6.4% and the Slope amounted to 1.57.
In the case of `c1cc(-c2nc(N3CCOCC3)c3oc4ccc(CN5CC6CC5CO6)cc4c3n2)c2cc[nH]c2c1` (stereo not drawn) [CVL237], the 50% inhibitory concentration (IC50) in assay [1] (read-out: Absolute IC50) came out at 3480 nM. For the same molecule, the IC50 in assay [1] (read-out: Relative IC50) came to 3410 nM. For the same molecule, in assay [1], the “Maximum Inhibition Rate (%)” value amounted to 99.5%, the “Minimum Inhibition Rate (%)” value is given as -10.0% and the Slope is reported as 9.51.
Regarding `CCOc1cc2ncc(C#N)c(Nc3ccc(OCc4ccccn4)c(Cl)c3)c2cc1NC(=O)/C=C/CN(C)C.O=C(O)/C=C\C(=O)O` [Compound A009, (E)-N-(4-(3-chloro-4-(pyridin-2-ylmethoxy)anilino)-3-cyano-7-ethoxyquinolin-6-yl)-4-(dimethylamino)but-2-enamide maleate, reference compound], in assay [1] (read-out: Absolute IC50), the IC50 came out at 3310 nM. Further, in assay [1] (read-out: Relative IC50), the IC50 stood at 3260 nM. Also, in assay [1], the “Maximum Inhibition Rate (%)” value was found to be 99.2%, the “Minimum Inhibition Rate (%)” value is recorded as -10.0% and the Slope stood at 13.13.
The molecule `CCOc1cc2ncc(C#N)c(Nc3ccc(OCc4ccccn4)c(Cl)c3)c2cc1NC(=O)/C=C/CN1CC(N(C)C)C1` [Compound A0901, (E)-N-(4-((3-chloro-4-(pyridin-2-ylmethoxy)phenyl)amino)-3-cyano-7-ethoxyquinolin-6-yl)-4-(3-(dimethylamino)azetidin-1-yl)but-2-enamide] displayed an IC50 in assay [2] of 16.8 nM.
`CCOc1cc2ncc(C#N)c(Nc3ccc(OCc4ccccn4)c(Cl)c3)c2cc1NC(=O)/C=C/CN1CC(F)(F)C1` [Compound A0903, (E)-N-(4-((3-chloro-4-(pyridin-2-ylmethoxy)phenyl)amino)-3-cyano-7-ethoxyquinolin-6-yl)-4-(3,3-difluoroazetidin-1-yl)but-2-enamide]: half-maximal inhibition in assay [2] (IC50) required 2.06 nM.
In assay [2], `C=C(CN1CC(N(C)C)C1)C(=O)Nc1cc2c(Nc3ccc(OCc4ccccn4)c(Cl)c3)c(C#N)cnc2cc1OCC` [Compound A0905, N-(4-((3-chloro-4-(pyridin-2-ylmethoxy)phenyl)amino)-3-cyano-7-ethoxyquinolin-6-yl)-2-((3-(dimethylamino)azetidin-1-yl)methyl)propenamide] gave a half-inhibitory concentration (IC50) of 69.6 nM.
The same measure, in the same setting: next, `C=C(CN1CCC(N(C)C)CC1)C(=O)Nc1cc2c(Nc3ccc(OCc4ccccn4)c(Cl)c3)c(C#N)cnc2cc1OCC` [Compound A0906, N-(4-((3-chloro-4-(pyridin-2-ylmethoxy)phenyl)amino)-3-cyano-7-ethoxyquinolin-6-yl)-2-((4-(dimethylamino)piperidin-1-yl)methyl)propenamide]: 152 nM.
In assay [2], “(E)-N-(4-((3-chloro-4-(pyridin-2-ylmethoxy)phenyl)amino)-3-cyano-7-ethoxyquinolin-6-yl)-4-(3,3-difluoroazetidin-1-yl)but-2-enamide [Compound A0902]” yielded a concentration for half-maximal inhibition (IC50) of 2.53 nM.
Consider “(E)-N-(4-((3-chloro-4-(pyridin-2-ylmethoxy)phenyl)amino)-3-cyano-7-ethoxyquinolin-6-yl)-4-(methanesulfonamido)but-2-enamide [Compound A0904]”, for which half-maximal inhibition in assay [2] (IC50) required 2.18 nM.
